In brackets after ≈: the same amount, converted by molar mass. Like-named read-outs stand apart in the source and are kept apart here.
Tests used:
[1] = Particle size distribution and surface area; assay type: physicochemical
Description: Micronized darunavir dimethylsulfoxide solvate was prepared from the non-micronized form by milling using a jet mill (Super fine vortex Mill™).

Bulk density = assay type: physicochemical
[2] = Hygroscopicity (DVS) from 0% to 90%; assay type: physicochemical; settings: for weight gain from 0% to 90% (DVS) / hygroscopicity (in words): 25° C.; for hygroscopicity (in words): DVS 0% to 90%
Description: About 10 mg of the tetrahydrofuran solvate form of the present invention were used to test the hygroscopicity (DVS) from 0% to 90% according to the details on Table 2.
About 10 mg of the dimethylsulfoxide solvate form of the present invention were used to test the hygroscopicity (DVS) from 0% to 90% according to the details on Table 2 hereinabove.
The hygroscopicities of the Darunavir forms of the present invention were compared to the hygroscopicity of Darunavir ethanolate API.

[3] = Aqueous solubility in buffers, 24 h shaking at 25° C., HPLC; assay type: physicochemical; settings: 24 hours at 25° C.; for solubility at 24 h: 25 °C, thermodynamic from solid
Description: The aqueous solubility of the tetrahydrofuran solvate of darunavir of the present invention was measured. Specifically, about 10 mg of the compound was accurately weighed into a 4 ml clear glass vial followed by the addition of 2.5 ml buffer (at different pH) to the vial. The vial was then mounted on a Thermomixer and was kept shaking for 24 hours at 25° C. The solution was filtered through 0.45 μm PTFE filter. The pH value and concentration of the filtrate were checked by pH meter and HPLC (Agilent 1200; Column: Zorbax SB C18, 4.6 mm×150 mm ID×5 μm; Profile of mobile phase: t=0 water 70, ACN 30; t=15,20 water 0, ACN 100; Column temperature 30° C.; Mobile rate 1.0 mL/min; Detector wavelength 265 nm; The typical retention time of Darunavir is 7.7 min), respectively.
(§1) The aqueous solubility of the dimethylsulfoxide solvate of darunavir of the present invention was measured. Specifically, about 10 mg of the compound was accurately weighed into a 4 ml clear glass vial followed by the addition of 2.5 ml buffer (at different pH) to the vial. The vial was then mounted on a Thermomixer and kept shaking for 24 hours at 25° C. The solution was filtered through 0.45 μm PTFE filter. The pH value and concentration of the filtrate were checked by pH meter and HPLC, respectively.
as §1, with “Specifically,” for “The aqueous solubility of the dimethylsulfoxide solvate of darunavir of the present invention was measured. Specifically,”, “respectively. The results are summarized in Table 11 and in FIG. 8 panel C.” for “respectively.”

[4] = water at 20° C.; cited from earlier work
[5] = pH 1.2 buffer, footnote *degraded
[6] = listed as dimethylsulfoxide solvate form
[7] = listed as tetrahydrofuran solvate form

Question: What does the source list for `CC(C)CN(C[C@@H](O)[C@H](Cc1ccccc1)NC(=O)O[C@H]1CO[C@H]2OCC[C@H]21)S(=O)(=O)c1ccc(N)cc1` [[(1S,2R)-3-[[(4-aminophenyl)sulfonyl](2-methylpropyl)amino]-2-hydroxy-1-(phenylmethyl)propyl]-carbamic acid (3R,3aS,6aR)-hexahydrofuro[2,3-b]furan-3-yl ester]?
Answer: Dissolution (15 min, 600 mg/vessel, 75 rpm, 900 mL 2.0% Tween-20 in 0.05M sodium phosphate buffer pH 3.0, 37° C., listed as Micronized): 89.30%; Dissolution (30 min, same medium, listed as Micronized): 94.72%; Dissolution (45 min, same medium, listed as Micronized): 95.98%; Dissolution (60 min, same medium, listed as Micronized): 94.95%; D10 ([1]; listed as Micronized): 1.5 μm; D50 ([1]; listed as Micronized): 3.7 μm; D90 ([1]; listed as Micronized): 7.2 μm; Specific surface area ([1]; listed as Micronized): 2.6 m^2/g; Surface weighted mean ([1]; listed as Micronized): 2.3 μm; Vol. weighted mean ([1]; listed as Micronized): 4.1 μm

Question: Which results are given for `CC(C)CN(C[C@@H](O)[C@H](Cc1ccccc1)NC(=O)O[C@H]1CO[C@H]2OCC[C@H]21)S(=O)(=O)c1ccc(N)cc1` [amorphous darunavir, [(1S,2R)-3-[[(4-aminophenyl)sulfonyl](2-methylpropyl)amino]-2-hydroxy-1-(phenylmethyl)propyl]-carbamic acid (3R,3aS,6aR)-hexahydrofuro[2,3-b]furan-3-yl ester]?
Answer: bulk density (Bulk density): 0.445 ± 0.012 g/mL; weight gain from 0% to 90% (DVS) [2]: 2.617%; hygroscopicity (in words) [2]: hygroscopic; Solubility [3, 5]: 1.73* mg/ml; Solubility ([3]; pH 4.5 buffer): 0.27 mg/mL (≈ 493 µM); Solubility ([3]; pH 6.8 buffer): 0.24 mg/mL (≈ 438 µM); Solubility ([3]; pH 7.4 buffer): 0.23 mg/mL (≈ 420 µM); Solubility ([3]; water): 0.27 mg/mL (≈ 493 µM)

Question: Which results are given for `CC(C)CN(C[C@@H](O)[C@H](Cc1ccccc1)NC(=O)O[C@H]1CO[C@H]2OCC[C@H]21)S(=O)(=O)c1ccc(N)cc1` [darunavir dimethylsulfoxide solvate, [(1S,2R)-3-[[(4-aminophenyl)sulfonyl](2-methylpropyl)amino]-2-hydroxy-1-(phenylmethyl)propyl]-carbamic acid (3R,3aS,6aR)-hexahydrofuro[2,3-b]furan-3-yl ester]?
Answer: Dissolution (15 min, 600 mg/vessel, 75 rpm, 900 mL 2.0% Tween-20 in 0.05M sodium phosphate buffer pH 3.0, 37° C., listed as Non-micronized): 56.83%; Dissolution (30 min, same medium, listed as Non-micronized): 81.61%; Dissolution (45 min, same medium, listed as Non-micronized): 88.06%; Dissolution (60 min, same medium, listed as Non-micronized): 90.45%; bulk density (Bulk density): 0.472 ± 0.008 g/mL; denser when compared to the bulk density of the known ethanolate form (Bulk density): approximately 26%; D10 ([1]; listed as Non-micronized): 3.9 μm; D50 ([1]; listed as Non-micronized): 29.2 μm; D90 ([1]; listed as Non-micronized): 99.7 μm; Specific surface area ([1]; listed as Non-micronized): 0.9 m^2/g; Surface weighted mean ([1]; listed as Non-micronized): 6.5 μm; Vol. weighted mean ([1]; listed as Non-micronized): 42.0 μm; weight gain from 0% to 90% (DVS) [2]: 0.9431%; weight gain from 0% to 90% (DVS) [2, 6]: 0.9431%; hygroscopicity (in words) [2]: only slightly hygroscopic; hygroscopicity (in words) [2, 6]: only slightly hygroscopic; Solubility [3, 5]: 1.36* mg/ml; Solubility ([3]; pH 4.5 buffer): 0.22 mg/mL; Solubility ([3]; pH 6.8 buffer): 0.21 mg/mL; Solubility ([3]; pH 7.4 buffer): 0.20 mg/mL; Solubility ([3]; water): 0.23 mg/mL

Question: Which results are given for `CC(C)CN(C[C@@H](O)[C@H](Cc1ccccc1)NC(=O)O[C@H]1CO[C@H]2OCC[C@H]21)S(=O)(=O)c1ccc(N)cc1` [darunavir ethanolate, [(1S,2R)-3-[[(4-aminophenyl)sulfonyl](2-methylpropyl)amino]-2-hydroxy-1-(phenylmethyl)propyl]-carbamic acid (3R,3aS,6aR)-hexahydrofuro[2,3-b]furan-3-yl ester, reference compound]?
Answer: bulk density (Bulk density; known ethanolate form, comparator): 0.374 ± 0.009 g/mL; weight gain from 0% to 90% (DVS) [2]: 2.180%; hygroscopicity (in words) [2]: hygroscopic; loss of solvate during the desorption measurement ([2]; DVS desorption): lost the solvate ethanol molecules; solubility in water [4]: approximately 0.15 mg/mL

Question: What does the source list for `CC(C)CN(C[C@@H](O)[C@H](Cc1ccccc1)NC(=O)O[C@H]1CO[C@H]2OCC[C@H]21)S(=O)(=O)c1ccc(N)cc1` [darunavir tetrahydrofuran solvate, [(1S,2R)-3-[[(4-aminophenyl)sulfonyl](2-methylpropyl)amino]-2-hydroxy-1-(phenylmethyl)propyl]-carbamic acid (3R,3aS,6aR)-hexahydrofuro[2,3-b]furan-3-yl ester]?
Answer: bulk density (Bulk density): 0.431 ± 0.007 g/mL; weight gain from 0% to 90% (DVS) [2]: 1.366%; weight gain from 0% to 90% (DVS) [2, 7]: 1.366%; hygroscopicity (in words) [2]: only slightly hygroscopic; hygroscopicity (in words) [2, 7]: slightly hygroscopic; solubility at 24 h ([3]; pH 1.2 buffer, pH 1.2, simulated gastric fluid, footnote *degraded): 1470 µg/mL; solubility at 24 h ([3]; pH 4.5 buffer, pH 4.5, aqueous buffer): 270 µg/mL; solubility at 24 h ([3]; pH 6.8 buffer, pH 6.8, aqueous buffer): 240 µg/mL; solubility at 24 h ([3]; pH 7.4 buffer, pH 7.4, aqueous buffer): 230 µg/mL; solubility at 24 h ([3]; water): 270 µg/mL

From US9453024B2, “Polymorphs of darunavir” (MAPI PHARMA LTD., priority 2009, dated 2016)
